These results are taken from US20020062499A1, “Methods for translational repression of gene expression in plants” (priority 2000, published 2002).

The test system of assay [1] is transgenic corn lines. The assay is described as follows: Field test of MS2 translation repression system transgenic corn lines. Format: in vivo. The conditions noted are these: 32 oz/acre Roundup® at the 6-8 leaf stage; transgenic TRS corn lines. The procedure:
Field tests are conducted to evaluate the vegetative tolerance and male sterility of transgenic corn lines selected from the greenhouse tests. Lines for the field trial are selected based on previous scores showing good to excellent vegetative tolerance, very high or complete male sterility induced by glyphosate, and available seed supply. The pedigree of plants in the field test is either [(Ro×B73)×B73] or (B73×Ro). Based on these pedigrees, it is expected that half of the plants in a plot would be killed by glyphosate (formulated Roundup®) application, because they would not contain the transgene.
The field test is set up in two blocks, each block containing four groups of plots that would receive a single spray treatment. The treatments are (1) no spray, (2) 32 oz/acre Roundup® at the 1-2 leaf stage, (3) 32 oz/acre Roundup® at the 4-5 leaf stage, and (4) 32 oz/acre Roundup® at the 6-8 leaf stage. Plants are scored for male fertility when they began to flower, and scoring is repeated every 1-2 days for about eight days. Observations included the length of time between emergence of the tassel from the first plants and from the last plant in each plot. A sample of the anthers is collected from each plant, and the viability of pollen is judged with the aid of a hand-held microscope.

Assay [2] concerns non-transgenic parental control plant (M202). Kind of assay: Glyphosate treatment of non-transgenic parental control rice. The conditions noted are these: 64 oz./A glyphosate. The format is in vivo. From the text:
The anther-specific promoter P-Ta.1674-19 is amplified from wheat genomic DNA by Genome Walker™ as a HindIII/BglII fragment, digested with these two enzymes, and the fragment ligated into pMON42180 (FIG. 3) digested with the same enzymes, resulting in pMON52000. The plant expression vector pMON52001 (FIG. 27) is constructed by taking the Not I fragment containing of P-Ta. 1674-19/I-Zm.Hsp70/MS2. CP:en/T-AGRTU.nos from pMON52000 and ligating into pMON42916 (FIG. 7) digested with Not I. pMON42438 (FIG. 28) and pMON42439 (FIG. 29) are constructed by replacing the wheat P-Ta. 1674-19 promoter element of pMON52001 with corn anther-specific promoters P-700353038 and P-70053844, respectively. pMON42945 (FIG. 30) is constructed by ligating the Not I fragment consisting of P-L1482830/I-Zm.Hsp70/MS2.CP:en/T-AGRTU.nos into pMON42916. These promoter elements are isolated from wheat and corn anther DNA libraries by Genome Walker™. Rice variety M202 is transformed by Agrobacterium-mediated transformation. […] Vegetative tolerance to the glyphosate is visually evaluated 21 DAT (day after treatment) based on a scale of 0 to 5 (as discussed above). […] Male sterility is scored at maturity by counting the number of empty florets and dividing by the total number of florets (filled plus empty) in each panicle.

Turning to `O=C(O)CNCP(=O)(O)O` [glyphosate, N-phosphonomethylglycine], the “male sterility under field conditions” value in assay [1] is “very effective for producing male sterility”. Further, the “effect of the glyphosate treatment on the non-transgenic parental control plant” value in assay [2] was “killed”.
